Measurements from patent publication US8350079B2, “Treprostinil formulation” (United Therapeutics Corporation, priority 2008, dated 2013).

Tests used:
[1] = Stability tests of treprostinil forms (dimer formation, room temperature stability); assay type: physicochemical; details: room temperature
Method: The anhydrous form of treprostinil (TREPROSTINIL) has been previously described, e.g., in J. Org. Chem. 2004, 69, 1890-1902. […] A larger amount of dimers can form at higher temperatures. However, dimer formation is negligible at 5° C. Therefore, anhydrous treprostinil must be refrigerated for storage and transport. In the past, treprostinil had to be refrigerated and shipped with ice packs to maintain low (2° C.-8° C.) temperatures.
The instability of anhydrous treprostinil also imposes challenges to its preparation. To obtain anhydrous treprostinil, wet compound from recrystallization was heated in a vacuum. […] Therefore, heating temperature must be carefully controlled to avoid high heat when drying treprostinil in order to remove all water, otherwise these two dimer impurities will be produced.
Data has been generated to characterize a monohydrate form of treprostinil. […] Treprostinil monohydrate can be stored and shipped with no special handling.

[2] = Extended room temperature storage of treprostinil monohydrate lot D-1007-089 (18-month stability summary: water content, assay/impurity profile); assay type: physicochemical; details: for TREPROSTINIL Assay: in % (unit assumed)
Method: 2. UT Stability Summary (18-month) for monohydrate lot # D-1007-089
A 3.4-kg sample of treprostinil diethanolamine salt was dissolved in 36 L of sterile water, 60 L of ethyl acetate and 3.6 L of 3 M HCl were added and the mixture stirred. The layers were separated and the aqueous layer was extracted thrice with 20-L portions of ethyl acetate. The four organic layers were combined, the organic solution washed twice with 20-L portions of sterile water, once with 20 L of brine and dried over 2.86 kg of anhydrous sodium sulfate. The mixture was filtered and the filtrate was concentrated to yield treprostinil as a gummy solid. This solid was transferred to glass drying trays and let air-dry for 66 hours. This solid was then dissolved in 23.8 kg of ethanol, warmed to 48° C. and treated with 23.8 kg of warm (40-50° C.) sterile water. The solution was stirred and then stirring was stopped to allow the treprostinil to slowly crystallize. The resulting white solid was collected by filtration in an Aurora filter, washed with 45 L of a cold (6° C.) 20% ethanol in sterile water solution, the filter moved to a Hepa-filtered Finishing Room and the solid dried under house vacuum for 23 hours. The solid was transferred to glass drying trays and further air-dried for 115 hours until the total weight of the material was constant (no further solvent loss). A sample of this treprostinil monohydrate was taken as Lot #D-1007-089 for stability studies. The remaining material was further dried in a vacuum oven at 55° C. and 1.66 Torr for 10 hours to give 2.68 kg (96.4%) of anhydrous treprostinil (Lot #01G07018).
One of the stability studies has followed the monohydrate of TREPROSTINIL stored in an open container.

[3] = 1 Month, Container 1 (closed), room temperature
[4] = 1 Month, Container 2 (covered with Kimwipe), room temperature
[5] = 2 Months, Container 1 (closed), room temperature
[6] = 2 Months, Container 2 (covered with Kimwipe), room temperature
[7] = 3 Months, Container 1 (closed), room temperature
[8] = 3 Months, Container 2 (covered with Kimwipe), room temperature
[9] = 6 Months, Container 1 (closed), room temperature
[10] = 6 Months, Container 2 (covered with Kimwipe), room temperature
[11] = 12 Months, Container 1 (closed), room temperature
[12] = 12 Months, Container 2 (covered with Kimwipe), room temperature
[13] = 18 Month, Container 1 (closed), room temperature
[14] = 18 Month, Container 2 (covered with Kimwipe), room temperature
[15] = Initial, Container 1 (closed), room temperature
[16] = Initial, Container 2 (covered with Kimwipe), room temperature

For CCCCC[C@H](O)CC[C@@H]1[C@H]2Cc3cccc(OCC(=O)O)c3C[C@H]2C[C@H]1O [TREPROSTINIL Lot# D-1007-089, treprostinil monohydrate], the “Stability at room temperature” value [1] was “stable at room temperature”, the 750W93 [2, 3] was 0.09% and the 751W93 [2, 3] was 0.04%. For the same compound, the “Impurity 1” value [2, 3] was 0.05, the “Impurity 2” value [2, 3] was 0.05 and the TREPROSTINIL Ethyl Ester [2, 3] was 0.2%. The Total impurities [2, 3] was 0.5%, the “TREPROSTINIL Assay” value [2, 3] was 100.1 and the 750W93 [2, 4] was 0.09%. The 751W93 [2, 4] was 0.04%, the “Impurity 1” value [2, 4] was 0.05 and the “Impurity 2” value [2, 4] was 0.05. The TREPROSTINIL Ethyl Ester [2, 4] was 0.2%, the Total impurities [2, 4] was 0.5% and the “TREPROSTINIL Assay” value [2, 4] was 100.4. The 750W93 [2, 5] was 0.09%, the 751W93 [2, 5] was 0.04% and the “Impurity 1” value [2, 5] was 0.05. The “Impurity 2” value [2, 5] was 0.05, the TREPROSTINIL Ethyl Ester [2, 5] was 0.2% and the Total impurities [2, 5] was 0.5%. For the same compound, the “Water, KF” value [2, 5] was 4.46%, the “TREPROSTINIL Assay” value [2, 5] was 99.5 and the 750W93 [2, 6] was 0.09%. For the same compound, the 751W93 [2, 6] was 0.04%, the “Impurity 1” value [2, 6] was 0.05 and the “Impurity 2” value [2, 6] was 0.05. For the same compound, the TREPROSTINIL Ethyl Ester [2, 6] was 0.2%, the Total impurities [2, 6] was 0.5% and the “Water, KF” value [2, 6] was 4.47%. For the same compound, the “TREPROSTINIL Assay” value [2, 6] was 99.6, the 750W93 [2, 7] was 0.09% and the 751W93 [2, 7] was 0.04%. The “Impurity 1” value [2, 7] was 0.06, the “Impurity 2” value [2, 7] was less than 0.05 and the TREPROSTINIL Ethyl Ester [2, 7] was 0.2%. For the same compound, the Total impurities [2, 7] was 0.5%, the “Water, KF” value [2, 7] was 4.51% and the “TREPROSTINIL Assay” value [2, 7] was 98.1. For the same compound, the 750W93 [2, 8] was 0.09%, the 751W93 [2, 8] was 0.04% and the “Impurity 1” value [2, 8] was 0.06. The “Impurity 2” value [2, 8] was less than 0.05, the TREPROSTINIL Ethyl Ester [2, 8] was 0.2% and the Total impurities [2, 8] was 0.5%. The “Water, KF” value [2, 8] was 4.48%, the “TREPROSTINIL Assay” value [2, 8] was 98.6 and the 750W93 [2, 9] was 0.1%. The 751W93 [2, 9] was 0.04%, the “Impurity 1” value [2, 9] was less than 0.05 and the “Impurity 2” value [2, 9] was less than 0.05. For the same compound, the TREPROSTINIL Ethyl Ester [2, 9] was 0.2%, the Total impurities [2, 9] was 0.6% and the “Water, KF” value [2, 9] was 4.59%. For the same compound, the “TREPROSTINIL Assay” value [2, 9] was 99.4, the 750W93 [2, 10] was 0.09% and the 751W93 [2, 10] was 0.04%. The “Impurity 1” value [2, 10] was less than 0.05, the “Impurity 2” value [2, 10] was less than 0.05 and the TREPROSTINIL Ethyl Ester [2, 10] was 0.2%. The Total impurities [2, 10] was 0.6%, the “Water, KF” value [2, 10] was 4.72% and the “TREPROSTINIL Assay” value [2, 10] was 99.3. The 750W93 [2, 11] was 0.09%, the 751W93 [2, 11] was less than 0.05% and the “Impurity 1” value [2, 11] was 0.06. For the same compound, the “Impurity 2” value [2, 11] was 0.05, the TREPROSTINIL Ethyl Ester [2, 11] was 0.2% and the Total impurities [2, 11] was 0.5%. The “Water, KF” value [2, 11] was 4.72%, the “TREPROSTINIL Assay” value [2, 11] was 100.1 and the 750W93 [2, 12] was 0.09%. The 751W93 [2, 12] was less than 0.05%, the “Impurity 1” value [2, 12] was 0.06 and the “Impurity 2” value [2, 12] was 0.05. The TREPROSTINIL Ethyl Ester [2, 12] was 0.2%, the Total impurities [2, 12] was 0.05% and the “Water, KF” value [2, 12] was 4.73%. The “TREPROSTINIL Assay” value [2, 12] was 100.3, the 750W93 [2, 13] was 0.09% and the 751W93 [2, 13] was less than 0.05%. For the same compound, the “Impurity 1” value [2, 13] was less than 0.05, the “Impurity 2” value [2, 13] was 0.05 and the TREPROSTINIL Ethyl Ester [2, 13] was 0.2%. For the same compound, the Total impurities [2, 13] was 0.05%, the “Water, KF” value [2, 13] was 4.67% and the “TREPROSTINIL Assay” value [2, 13] was 100.3. For the same compound, the 750W93 [2, 14] was 0.09%, the 751W93 [2, 14] was less than 0.05% and the “Impurity 1” value [2, 14] was less than 0.05. For the same compound, the “Impurity 2” value [2, 14] was 0.05, the TREPROSTINIL Ethyl Ester [2, 14] was 0.2% and the Total impurities [2, 14] was 0.05%. The “Water, KF” value [2, 14] was 4.72%, the “TREPROSTINIL Assay” value [2, 14] was 99.8 and the 750W93 [2, 15] was 0.1%. The 751W93 [2, 15] was 0.04%, the “Impurity 1” value [2, 15] was 0.06 and the “Impurity 2” value [2, 15] was 0.05. The TREPROSTINIL Ethyl Ester [2, 15] was 0.2%, the Total impurities [2, 15] was 0.5% and the “Water, KF” value [2, 15] was 4.55%. For the same compound, the “TREPROSTINIL Assay” value [2, 15] was 99.6, the 750W93 [2, 16] was 0.1% and the 751W93 [2, 16] was 0.04%. For the same compound, the “Impurity 1” value [2, 16] was 0.05, the “Impurity 2” value [2, 16] was less than 0.05 and the TREPROSTINIL Ethyl Ester [2, 16] was 0.2%. For the same compound, the Total impurities [2, 16] was 0.5%, the “Water, KF” value [2, 16] was 4.37% and the “TREPROSTINIL Assay” value [2, 16] was 99.5. For the same compound, the “Retention of the one mole of water in the solid” value ([2]; open container, over 18-months) was “has not disappeared” and the “Stability compared with the anhydrous form” value ([2]; room temperature, e.g. 25° C. / ambient temperatures) was “more stable than the anhydrous form”.
